Test results as given in US8329445B2, “Biosynthesis of phloroglucinol and preparation of 1,3-dihydroxybenzene therefrom” (Board of Trustees of Michigan State University, priority 2004, dated 2012).

Key:
2-pyrone synthase = target: T1, 2-pyrone synthase (Gerbera hybrida, UniProt P48391); test: in vitro enzymology of purified 2-pyrone synthase; format: biochemical
T1 construct: made in house
T1 sequence (P48391 1-402): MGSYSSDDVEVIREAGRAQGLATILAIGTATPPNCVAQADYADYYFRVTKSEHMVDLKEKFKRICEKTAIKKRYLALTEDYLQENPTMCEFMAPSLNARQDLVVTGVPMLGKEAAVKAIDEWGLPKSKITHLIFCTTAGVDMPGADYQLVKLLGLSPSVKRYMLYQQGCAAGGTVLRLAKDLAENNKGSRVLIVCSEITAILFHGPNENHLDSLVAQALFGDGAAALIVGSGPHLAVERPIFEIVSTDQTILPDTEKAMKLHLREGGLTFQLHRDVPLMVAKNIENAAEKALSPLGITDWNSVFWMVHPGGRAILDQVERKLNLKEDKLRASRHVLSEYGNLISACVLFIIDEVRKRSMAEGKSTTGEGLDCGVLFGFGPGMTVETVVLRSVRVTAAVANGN
From the text: (§1) To further explore its role in phloroglucinol biosynthesis, PhlD is purified to homogeneity and its in vitro enzymology examined. No activity (Table 1) is observed when acetyl-CoA alone is employed as a substrate. […] For comparison, 2-pyrone synthase, which like PhlD employs an activated 3,5-diketohexanoate 2 (Scheme 1), is purified to homogeneity.

E. coli strains = test: end-product inhibition in fed-batch fermentation of phlD-expressing E. coli strains; format: cell-based; conditions: culture medium concentration; data not shown
Experimental: Plasmid pJA3.131A (Kan^R, lacI^Q, PT7-phlD, serA) is transfected into chromosomally serA^− E. coli strains BL21(DE3), W3110(DE3), and JWF1(DE3) [i.e. RB791serA^−(DE3)], and into strain KL3(DE3) [i.e. AB2834(serA::aroB)] (E. coli strains RB791 and AB2834 are available from the E. coli Genetic Stock Center, New Haven, Conn., USA). All DE3 strains are obtained by integration of λDE3 prophage into the cell chromosomes. Cells are cultured in fed-batch conditions under mineral salts and limited glucose.
In these tests, phloroglucinol accumulation for all strains stops increasing during the stationary (or maintenance) phase. For BL21 and W3110, the highest phloroglucinol concentration is achieved about 6 hours and about 12 hours, respectively, after initiation of induction, i.e. the first IPTG addition. End-product inhibition is also observed.

PhlD = target: T2, PhlD (Pseudomonas fluorescens, UniProt Q4K418); test: in vitro enzymology of purified PhlD; format: biochemical, P. fluorescens Pf-5
T2 construct: made in house
T2 sequence (Q4K418 1-349): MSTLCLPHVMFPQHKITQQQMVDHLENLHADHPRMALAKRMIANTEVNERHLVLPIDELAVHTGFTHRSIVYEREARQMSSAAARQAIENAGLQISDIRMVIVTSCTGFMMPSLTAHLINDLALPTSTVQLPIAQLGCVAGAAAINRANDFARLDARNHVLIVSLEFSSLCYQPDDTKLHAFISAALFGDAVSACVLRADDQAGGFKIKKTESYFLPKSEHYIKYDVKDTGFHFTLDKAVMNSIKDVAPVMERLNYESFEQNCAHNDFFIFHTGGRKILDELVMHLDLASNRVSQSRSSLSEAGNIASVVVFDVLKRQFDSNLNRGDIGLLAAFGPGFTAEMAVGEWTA
From the text: as §1

[1] = substrate: CC(=O)SCCNC(=O)CCNC(=O)[C@H](O)C(C)(C)COP(=O)(O)OP(=O)(O)OC[C@H]1O[C@@H](n2cnc3c(N)ncnc32)[C@H](O)[C@@H]1OP(=O)(O)O; test: in vitro enzymology of purified 2-pyrone synthase; format: biochemical, Gerbera hybrida; conditions: other: substrate of 2-pyrone synthase purified to homogeneity
From the text: as §1

[2] = substrate: CC(C)(COP(=O)(O)OP(=O)(O)OC[C@H]1O[C@@H](n2cnc3c(N)ncnc32)[C@H](O)[C@@H]1OP(=O)(O)O)[C@@H](O)C(=O)NCCC(=O)NCCSC(=O)CC(=O)O; test: in vitro enzymology of purified PhlD; format: biochemical, P. fluorescens Pf-5; conditions: other: substrate of PhlD purified to homogeneity
From the text: as §1

Molecule “2-pyrone synthase: 2-pyrone synthase from Gerbera hybrida, converts malonyl-CoA into triacetic acid lactone; comparison enzyme” has a kcat (2-pyrone synthase; 2-pyrone synthase purified to homogeneity) of 0.055 s⁻¹.

For Oc1cc(O)cc(O)c1 [phloroglucinol, 1,3,5-trihydroxybenzene], the “concentration at which phloroglucinol is responsible for end-product inhibition” value (E. coli strains) was at least 2 g/L.

For CC(=O)SCCNC(=O)CCNC(=O)[C@H](O)C(C)(C)COP(=O)(O)OP(=O)(O)OC[C@H]1O[C@@H](n2cnc3c(N)ncnc32)[C@H](O)[C@@H]1OP(=O)(O)O [acetyl-CoA], the “specific activity with malonyl-CoA and acetyl-CoA relative to malonyl-CoA in the absence of acetyl-CoA” value (2-pyrone synthase; 2-pyrone synthase incubated with malonyl-CoA and acetyl-CoA) was “twofold higher”, the activity as substrate (2-pyrone synthase; acetyl-CoA as a substrate of 2-pyrone synthase) was “unable to use acetyl-CoA as a substrate” and the “specific activity with malonyl-CoA and acetyl-CoA relative to only malonyl-CoA” value (PhlD; PhlD incubated with malonyl-CoA and acetyl-CoA) was “Approximately equal”. For the same molecule, the activity as substrate (PhlD; employed alone as a substrate of PhlD) was “No activity”.

B1: 2-pyrone synthase (Gerbera hybrid cultivar) (protein)
chain: MGSYSSDDVEVIREAGRAQGLATILAIGTATPPNCVAQADYADYYFRVTKSEHMVDLKEKFKRICEKTAIKKRYLALTEDYLQENPTMCEFMAPSLNARQDLVVTGVPMLGKEAAVKAIDEWGLPKSKITHLIFCTTAGVDMPGADYQLVKLLGLSPSVKRYMLYQQGCAAGGTVLRLAKDLAENNKGSRVLIVCSEITAILFHGPNENHLDSLVAQALFGDGAAALIVGSGPHLAVERPIFEIVSTDQTILPDTEKAMKLHLREGGLTFQLHRDVPLMVAKNIENAAEKALSPLGITDWNSVFWMVHPGGRAILDQVERKLNLKEDKLRASRHVLSEYGNLISACVLFIIDEVRKRSMAEGKSTTGEGLDCGVLFGFGPGMTVETVVLRSVRVTAAVANGN
notes: made in house
In the case of B1, the Km [1] is reported as 2.2 µM.

B2: PhlD (Pseudomonas protegens Pf-5) (protein)
chain: MSTLCLPHVMFPQHKITQQQMVDHLENLHADHPRMALAKRMIANTEVNERHLVLPIDELAVHTGFTHRSIVYEREARQMSSAAARQAIENAGLQISDIRMVIVTSCTGFMMPSLTAHLINDLALPTSTVQLPIAQLGCVAGAAAINRANDFARLDARNHVLIVSLEFSSLCYQPDDTKLHAFISAALFGDAVSACVLRADDQAGGFKIKKTESYFLPKSEHYIKYDVKDTGFHFTLDKAVMNSIKDVAPVMERLNYESFEQNCAHNDFFIFHTGGRKILDELVMHLDLASNRVSQSRSSLSEAGNIASVVVFDVLKRQFDSNLNRGDIGLLAAFGPGFTAEMAVGEWTA
notes: made in house
B2 showed a Km [2] of 37 µM.

B3: PhlD: phloroglucinol synthase expressed from phlD gene of P. fluorescens Pf-5, SEQ ID NO:2 (protein)
chain: MSTLCLPHVMFPQHKITQQQMVDHLENLHADHPRMALAKRMIANTEVNERHLVLPIDELAVHTGFTHRSIVYEREARQMSSAAARQAIENAGLQISDIRMVIVTSCTGFMMPSLTAHLINDLALPTSTVQLPIAQLGCVAGAAAINRANDFARLDARNHVLIVSLEFSSLCYQPDDTKLHAFISAALFGDAVSACVLRADDQAGGFKIKKTESYFLPKSEHYIKYDVKDTGFHFTLDKAVMNSIKDVAPVMERLNYESFEQNCAHNDFFIFHTGGRKILDELVMHLDLASNRVSQSRSSLSEAGNIASVVVFDVLKRQFDSNLNRGDIGLLAAFGPGFTAEMAVGEWTA
modifications: Pseudomonas fluorescens Pf-5
With B3 the kcat (PhlD; PhlD purified to homogeneity, malonyl-CoA substrate) was 0.0783 s⁻¹.
